Source: patent US6362207B1, “Methods of treating viral infections with benzimidazoles” (priority 1995, dated 2002)
Like-named read-outs stand apart in the source and are kept apart here.

Columns and labels:
rhinovirus = assay: In vitro rhinovirus model; type: cell-based
B-16 mouse melanoma = tested on: B-16 mouse melanoma
Protocol: The data in Tables 1, 2 and 3 are reported in T/C which is interpreted using the following scale:
long term survivors for P388 is >30 days, for B16 it is >60 days. The NCI Measure of Success is T/C=125.
This study was performed in black mice injected i.p. with B-16 mouse melanoma which many researchers believe is the most predictive model for efficacy in humans. […] Death is the end point in this model.

P388 = assay: P-388 model for leukemia, T/C; type: in vivo, mice
Excerpt: In the P-388 model for leukemia there was a dose responsive effect and the results were good.
The NCI Measure of Success is T/C=125.

[1] = type: in vivo
Excerpt: Additional in vivo cancer studies are presented in a tabular form below. The data is presented in the following format—dose regimen in parenthesis, dosage in mg/kg: tumor growth suppression (tg supp.), toxic deaths/number of test subjects (deaths), % weight change (wt).

[2] = tested on: MX1 breast cancer tumors implanted subcutaneously; assay: Tumor growth reduction in mice models (Table 5), breast; type: in vivo; settings: MXI-breast, positive control 125 mg/kg
lung = type: in vivo; settings: A549-lung, positive control 125 mg/kg
influenza = assay: In vivo model for influenza; design: species or system mice; settings: 75 mg/kg; for 21 days
Protocol: The positive control was amantadine (75 mg/kg) with 100% of the mice surviving for 21 days. 2-(Methoxycarbonylamino)benzimidazole was not active in the same test.

[3] = tested on: HIV-1 in U1 cells (promonocytic, from U937); assay: Additional chronic HIV studies, monocytes; type: cell-based; settings: chronic HIV model
Protocol: Chronic HIV-1 infected cells U1 were derived from an acute HIV-1 infection of the promonocytic cell line, U937. The chronic HIV-1 infected cells, ACH-2 were derived from an acute HIV-1 infection of the T cell line, A3.01.
These cells were cultured in medium and the phorbol ester, PMA. PMA causes the cells (both U1 and ACH-2) to be activated and not divide but it also causes the U-1 cells to differentiate. […] Cell viability was measured when these cell lines were treated with the test compound.
Both cell lines constituitively produce a small amount of HIV-1. ACH-2 cell lines tend to produce more HIV-1 than U1 cells as shown by p24 ELISA. When either cell line is cultured in the presence of PMA there is an increase in the quantity of HIV-1 produced as measured by the p24 antigen ELISA.
In addition, the number of […] positive HIV mRNA expressing cells per microscopic field is measured. Comparisons can be made from these numbers since the same number of cells were adhered to the glass slides for each drug concentration 10×10^6 cells/ml).
These cells were treated with test samples. […] The positive control was interferon which suppressed HIV monocytes replication by 80%.

HIV = assay: microbe, parasite or virus in culture; type: cell-based; settings: 1 μg/ml
[4] = given for perspective; cited from earlier work
herpes = assay: In vivo herpes screening test; design: species or system mice; settings: 75 mg/kg
Protocol: The positive control was acyclovir at 75 mg/kg dose; 60% of the mice survived with a mean death date of 17.2 days.

colon = assay: Tumor growth reduction in mice models (Tables 5 and 6), colon; type: in vivo; settings: HT29-colon, positive control 4 mg/kg
HT29 colon tumor cells = assay: MTT cell viability test, colon tumor cells; type: cell-based, human; settings: MTT, 5 day incubation
MX1 breast cells = assay: MTT cell viability test, breast tumor cells; type: cell-based, human; settings: 5 day incubation
A549 lung tumor cells = assay: MTT cell viability test, lung tumor cells; type: cell-based, human; settings: MTT, 5 day incubation
[5] = positive control, 300 mg/kg on dose
[6] = A549 (lung), positive control 125 mg/kg
[7] = DU-145, positive control 300 mg/kg, 1 dose
[8] = HT29 (colon), positive control 300 mg/kg, 1 dose
[9] = MCF-7L (breast), positive control 300 mg/kg, 1 dose
[10] = MX1 xenograft, positive control 300 mg/kg, 1 dose
[11] = SK-MES, positive control 2 mg/kg, 5 doses

COc1ccc2nc(C(O)C(O)c3nc4ccc(OC)cc4[nH]3)[nH]c2c1 (stereo not shown) [A36683, reference compound]
therapeutic index (TI), ratio of toxic dose to efficacious dose (rhinovirus): 1000-3200

O=P1(N(CCCl)CCCl)NCCCO1 (stereo not shown) [Cytoxan, reference compound]
T/C (B-16 mouse melanoma; [5]): 191 | weight change (B-16 mouse melanoma; [5]): −8.43% | increased life span, Positive Control (P388; P388-luekemia, positive control (125)): curative | T/C (P388; [5]): 191 | weight change (P388; [5]): −8.43% | % weight change (wt) [1, 6]: −1% | toxic deaths/number of test subjects (deaths) [1, 6]: 0/10 | tumor growth suppression (tg supp.) [1, 6]: 69% | % weight change (wt) [1, 7]: +6% | toxic deaths/number of test subjects (deaths) [1, 7]: 0/10 | tumor growth suppression (tg supp.) [1, 7]: 0% | % weight change (wt) [1, 8]: +10% | toxic deaths/number of test subjects (deaths) [1, 8]: 0/10 | tumor growth suppression (tg supp.) [1, 8]: 45% | % weight change (wt) [1, 9]: −15% | toxic deaths/number of test subjects (deaths) [1, 9]: 3/10 | tumor growth suppression (tg supp.) [1, 9]: 100% | % weight change (wt) [1, 10]: −7% | toxic deaths/number of test subjects (deaths) [1, 10]: 0/10 | tumor growth suppression (tg supp.) [1, 10]: complete | Tumor Growth Decrease [2]: regression | Tumor Growth Decrease (lung): 69%

NC12CC3CC(CC(C3)C1)C2 [amantadine, reference compound]
mice surviving (influenza): 100%

Cc1cn([C@H]2C[C@H](N=[N+]=[N-])[C@@H](CO)O2)c(=O)[nH]c1=O [AZT, reference compound]
activity in this model [3]: no activity | inhibition of viral replication (HIV): 98%

[Cl-].[Na+] [table salt]
LD50 [4]: 3750 mg/kg

CCC1=C[C@@H]2CN(C1)Cc1c([nH]c3ccccc13)[C@@](C(=O)OC)(c1cc3c(cc1OC)N(C)[C@H]1[C@@](O)(C(=O)OC)[C@H](OC(C)=O)[C@]4(CC)C=CCN5CC[C@]31[C@@H]54)C2 [Navelbine]
increased life span, Positive Control (B-16 mouse melanoma; B16 melanoma, positive control (2)): 265% | % weight change (wt) [1, 11]: −5% | toxic deaths/number of test subjects (deaths) [1, 11]: 1/10 | tumor growth suppression (tg supp.) [1, 11]: 26%

Nc1nc2c(ncn2COCCO)c(=O)[nH]1 [acyclovir, reference compound]
mean death date (herpes): 17.2 days | mice survived (herpes): 60%

N.N.[Cl][Pt][Cl] [cis-plat]
Tumor Growth Decrease (colon): 59%

COc1cccc2c1C(=O)c1c(O)c3c(c(O)c1C2=O)C[C@@](O)(C(=O)CO)C[C@@H]3O[C@H]1C[C@H](N)[C@H](O)[C@H](C)O1 [Adriamycin, reference compound]
EC-50 Result (HT29 colon tumor cells; HT29, first column): 0.03 ppm | EC-50 Result (HT29 colon tumor cells; HT29, second column): 0.006 ppm | EC-50 Result (MX1 breast cells; MX1, first column): 0.02 ppm | EC-50 Result (MX1 breast cells; MX1, second column): 0.001 ppm | EC-50 Result (A549 lung tumor cells; A549, first column): 0.03 ppm | EC-50 Result (A549 lung tumor cells; A549, second column): 0.009 ppm

CCCCNC(=O)n1c(NC(=O)OC)nc2ccccc21 [benomyl]
EC-50 Result (HT29 colon tumor cells; HT29, first column): 0.742 ppm | EC-50 Result (HT29 colon tumor cells; HT29, second column): 0.747 ppm | EC-50 Result (MX1 breast cells; MX1, first column): 1.42 ppm | EC-50 Result (MX1 breast cells; MX1, second column): 2.42 ppm | EC-50 Result (A549 lung tumor cells; A549, first column): 0.980 ppm | EC-50 Result (A549 lung tumor cells; A549, second column): 1.02 ppm
